Laboratory results published in patent US11578072B2, “Spiro-lactam NMDA receptor modulators and uses thereof” (Aptinyx Inc., priority 2018, dated 2023).

How the values were obtained:
Plasma stability (Human) = format: in vitro ADME; conditions: after 60 minutes
Procedure: (§1) Plasma stability of disclosed compounds was investigated. The following table indicates the percent of compound remaining after 60 minutes.

[1] = Microsomal stability (Human); format: in vitro ADME; conditions: human microsomes, after 60 minutes
Procedure: (§2) Microsomal stability of disclosed compounds was investigated. The following table indicates the percent of compound remaining after 60 minutes.

Plasma stability (Rat) = format: in vitro ADME; conditions: after 60 minutes
Procedure: as §1

[2] = IV pharmacokinetics in rats; conditions: Sprague Dawley, in vivo, rat, 2 mg/kg, normal saline; for Vd: read-out: Vss
Procedure: Sprague Dawley rats were dosed intravenously using a normal saline formulation containing 2 mg/kg of the compounds identified in the below table. The table below summarizes the results of the IV pharmacokinetics.

NMDAR2B = target: T1, NMDAR2B (Homo sapiens, UniProt Q13224); experiment: NMDAR agonist assay, [3H]MK-801 binding, NMDAR2B expressing HEK cell membranes; format: biochemical; conditions: 50 μM glutamate; for EC50: read-out: NMDAR2B B: log EC50 (converted)
T1 construct: expressed in transfected cells; host or cells: HEK cells (membrane extract)
T1 sequence (Q13224 27-1484, species assumed, other chains not shown): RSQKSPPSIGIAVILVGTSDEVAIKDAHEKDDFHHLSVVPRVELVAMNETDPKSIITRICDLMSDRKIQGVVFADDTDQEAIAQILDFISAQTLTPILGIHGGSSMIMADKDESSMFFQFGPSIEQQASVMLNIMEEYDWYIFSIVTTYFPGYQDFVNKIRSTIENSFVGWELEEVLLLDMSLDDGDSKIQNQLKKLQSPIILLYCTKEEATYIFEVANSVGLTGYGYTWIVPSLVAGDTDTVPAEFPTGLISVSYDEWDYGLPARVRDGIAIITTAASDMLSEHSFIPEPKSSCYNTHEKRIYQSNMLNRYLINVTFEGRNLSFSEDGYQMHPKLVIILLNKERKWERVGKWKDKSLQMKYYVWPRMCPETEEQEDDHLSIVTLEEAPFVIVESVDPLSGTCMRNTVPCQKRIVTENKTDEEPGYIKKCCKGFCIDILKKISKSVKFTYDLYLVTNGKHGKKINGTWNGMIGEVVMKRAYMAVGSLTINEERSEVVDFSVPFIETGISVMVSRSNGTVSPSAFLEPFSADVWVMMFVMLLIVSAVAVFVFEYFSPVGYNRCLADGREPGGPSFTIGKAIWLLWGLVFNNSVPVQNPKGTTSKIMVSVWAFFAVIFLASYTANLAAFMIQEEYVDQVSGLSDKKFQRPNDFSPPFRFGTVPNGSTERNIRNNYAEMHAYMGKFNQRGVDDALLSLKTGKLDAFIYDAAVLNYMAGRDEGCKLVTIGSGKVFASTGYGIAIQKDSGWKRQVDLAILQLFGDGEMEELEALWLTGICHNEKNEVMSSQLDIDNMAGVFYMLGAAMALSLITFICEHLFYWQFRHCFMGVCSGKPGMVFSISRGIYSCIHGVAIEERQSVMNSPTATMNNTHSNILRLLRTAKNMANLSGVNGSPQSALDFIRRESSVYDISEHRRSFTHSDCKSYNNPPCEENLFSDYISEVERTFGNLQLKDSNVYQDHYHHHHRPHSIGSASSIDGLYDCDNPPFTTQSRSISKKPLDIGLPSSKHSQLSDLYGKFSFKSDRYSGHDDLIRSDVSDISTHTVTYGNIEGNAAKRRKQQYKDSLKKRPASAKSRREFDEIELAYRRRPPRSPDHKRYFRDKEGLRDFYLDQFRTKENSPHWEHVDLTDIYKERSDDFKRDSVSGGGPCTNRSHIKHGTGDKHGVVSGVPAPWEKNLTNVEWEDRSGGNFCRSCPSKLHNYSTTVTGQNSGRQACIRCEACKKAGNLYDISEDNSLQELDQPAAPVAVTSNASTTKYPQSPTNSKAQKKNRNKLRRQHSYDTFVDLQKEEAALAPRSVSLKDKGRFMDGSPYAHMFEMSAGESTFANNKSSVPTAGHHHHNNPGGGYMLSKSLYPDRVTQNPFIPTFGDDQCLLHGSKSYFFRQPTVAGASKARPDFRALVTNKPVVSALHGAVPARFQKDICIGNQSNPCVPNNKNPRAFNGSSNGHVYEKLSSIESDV
Procedure: (§3) Assays were conducted as described by Moskal et al., “GLYX-13: a monoclonal antibody-derived peptide that acts as an N-methyl-D-aspartate receptor modulator,” Neuropharmacology, 49, 1077-87, 2005. These studies were designed to determine if the test compounds act to facilitate NMDAR activation in NMDAR2A, NMDAR2B, NMDAR2C or NMDAR2D expressing HEK cell membranes as measured by increases in [3H]MK-801 binding.
(§4) In the assay, 300 μg of NMDAR expressing HEK cell membrane extract protein was preincubated for 15 minutes at 25° C. in the presence of saturating concentrations of glutamate (50 μM) and varying concentrations of test compound (1×10^−15M-1×10^−7M), or 1 mM glycine. Following the addition of 0.3 μCi of [3H]MK-801 (22.5 Ci/mmol), reactions were again incubated for 15 minutes at 25° C. (nonequilibrium conditions). Bound and free [3H]MK-801 were separated via rapid filtration using a Brandel apparatus.
(§5) In analyzing the data, the DPM (disintegrations per minute) of [3H]MK-801 remaining on the filter were measured for each concentration of test compound or for 1 mM glycine. The DPM values for each concentration of a ligand (N=2) were averaged. The baseline value was determined from the best fit curve of the DPM values modeled using the GraphPad program and the log(agonist) vs. response(three parameters) algorithm was then subtracted from all points in the dataset. The % maximal [3H]MK-801 binding was then calculated relative to that of 1 mM glycine: all baseline subtracted DPM values were divided by the average value for 1 mM glycine. The EC50 and % maximal activity were then obtained from the best fit curve of the % maximal [3H]MK-801 binding data modelled using the GraphPad program and the log(agonist) vs. response(three parameters) algorithm.
(§6) The tables below summarize the results for the wild type NMDAR agonists NMDAR2A, NMDAR2B, NMDAR2C, and NMDAR2D, and whether the compound is not an agonist (−), is an agonist (+), or is a strong agonist (++), where column A is based on the % maximal [3H]MK-801 binding relative to 1 mM glycine (−=0; <100%=+; and >100%=++); and column B is based on log EC50 values (0=−; >1×10^−9 M (e.g., −8)=+; and <1×10^−9 M (e.g., −10)++).

NMDAR2D [3] = target: T2, NMDAR2D (Homo sapiens, UniProt O15399); experiment: NMDAR agonist assay, [3H]MK-801 binding, NMDAR2D expressing HEK cell membranes; format: biochemical; conditions: 50 μM glutamate
T2 construct: expressed in transfected cells; host or cells: HEK cells (membrane extract)
T2 sequence (O15399 28-1336, species assumed, other chains not shown): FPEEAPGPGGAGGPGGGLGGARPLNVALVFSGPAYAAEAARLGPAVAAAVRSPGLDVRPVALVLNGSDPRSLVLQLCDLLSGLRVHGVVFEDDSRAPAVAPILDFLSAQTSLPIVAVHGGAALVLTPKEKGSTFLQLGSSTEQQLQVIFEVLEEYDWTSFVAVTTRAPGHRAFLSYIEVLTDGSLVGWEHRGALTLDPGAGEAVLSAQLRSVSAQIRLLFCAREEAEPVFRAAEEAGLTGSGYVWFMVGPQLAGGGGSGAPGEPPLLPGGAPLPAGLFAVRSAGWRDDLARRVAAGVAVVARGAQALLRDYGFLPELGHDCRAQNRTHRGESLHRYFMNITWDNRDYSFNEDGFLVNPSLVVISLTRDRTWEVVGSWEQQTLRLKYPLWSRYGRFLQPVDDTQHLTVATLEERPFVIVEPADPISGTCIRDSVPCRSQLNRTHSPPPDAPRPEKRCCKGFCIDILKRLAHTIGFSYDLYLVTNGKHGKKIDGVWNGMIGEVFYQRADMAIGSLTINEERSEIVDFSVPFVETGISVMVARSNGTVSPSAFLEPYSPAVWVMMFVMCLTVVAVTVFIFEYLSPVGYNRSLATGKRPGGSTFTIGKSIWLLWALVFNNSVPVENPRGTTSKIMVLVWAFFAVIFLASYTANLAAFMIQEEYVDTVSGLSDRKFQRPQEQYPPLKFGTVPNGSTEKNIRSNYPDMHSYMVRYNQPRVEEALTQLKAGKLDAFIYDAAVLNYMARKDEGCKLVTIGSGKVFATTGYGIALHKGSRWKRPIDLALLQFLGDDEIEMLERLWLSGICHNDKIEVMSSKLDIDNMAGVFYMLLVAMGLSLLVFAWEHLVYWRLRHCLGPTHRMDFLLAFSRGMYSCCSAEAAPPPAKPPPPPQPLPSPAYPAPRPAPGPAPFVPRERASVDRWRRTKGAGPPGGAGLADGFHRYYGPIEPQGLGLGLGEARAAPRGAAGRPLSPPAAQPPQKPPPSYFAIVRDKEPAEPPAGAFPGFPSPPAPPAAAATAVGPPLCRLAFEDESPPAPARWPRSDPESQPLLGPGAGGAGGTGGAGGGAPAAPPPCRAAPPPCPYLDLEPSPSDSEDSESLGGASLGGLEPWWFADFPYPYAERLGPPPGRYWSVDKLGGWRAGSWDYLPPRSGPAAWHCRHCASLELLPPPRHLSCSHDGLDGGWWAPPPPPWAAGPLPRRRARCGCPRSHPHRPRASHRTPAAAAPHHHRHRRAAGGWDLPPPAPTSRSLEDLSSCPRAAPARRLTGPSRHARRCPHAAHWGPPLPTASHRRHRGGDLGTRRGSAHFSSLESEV
Procedure: as §3, §4, §5, §6

NMDAR2D [4] = target: T3, NMDAR2D (Homo sapiens, UniProt O15399+Q05586); experiment: as above; format: biochemical; conditions: 50 μM glutamate, read-out: NMDAR2D B: log EC50 (converted)
T3 construct: expressed in transfected cells; host or cells: HEK cells (membrane extract)
T3 sequence (O15399 28-1336, species assumed, other chains not shown): as above
Procedure: as §3, §4, §5, §6

NMDAR2A = target: T4, NMDAR2A (Homo sapiens, UniProt Q12879); experiment: NMDAR agonist assay, [3H]MK-801 binding, NMDAR2A expressing HEK cell membranes; format: biochemical; design: key to NMDAR2A B: log EC50: 0=−; >1×10^−9 M (e.g., −8)=+; <1×10^−9 M (e.g., −10)++; conditions: 50 μM glutamate; for EC50: read-out: NMDAR2A B: log EC50 (converted)
T4 construct: expressed in transfected cells; host or cells: HEK cells (membrane extract)
T4 sequence (Q12879 23-1464, species assumed, other chains not shown): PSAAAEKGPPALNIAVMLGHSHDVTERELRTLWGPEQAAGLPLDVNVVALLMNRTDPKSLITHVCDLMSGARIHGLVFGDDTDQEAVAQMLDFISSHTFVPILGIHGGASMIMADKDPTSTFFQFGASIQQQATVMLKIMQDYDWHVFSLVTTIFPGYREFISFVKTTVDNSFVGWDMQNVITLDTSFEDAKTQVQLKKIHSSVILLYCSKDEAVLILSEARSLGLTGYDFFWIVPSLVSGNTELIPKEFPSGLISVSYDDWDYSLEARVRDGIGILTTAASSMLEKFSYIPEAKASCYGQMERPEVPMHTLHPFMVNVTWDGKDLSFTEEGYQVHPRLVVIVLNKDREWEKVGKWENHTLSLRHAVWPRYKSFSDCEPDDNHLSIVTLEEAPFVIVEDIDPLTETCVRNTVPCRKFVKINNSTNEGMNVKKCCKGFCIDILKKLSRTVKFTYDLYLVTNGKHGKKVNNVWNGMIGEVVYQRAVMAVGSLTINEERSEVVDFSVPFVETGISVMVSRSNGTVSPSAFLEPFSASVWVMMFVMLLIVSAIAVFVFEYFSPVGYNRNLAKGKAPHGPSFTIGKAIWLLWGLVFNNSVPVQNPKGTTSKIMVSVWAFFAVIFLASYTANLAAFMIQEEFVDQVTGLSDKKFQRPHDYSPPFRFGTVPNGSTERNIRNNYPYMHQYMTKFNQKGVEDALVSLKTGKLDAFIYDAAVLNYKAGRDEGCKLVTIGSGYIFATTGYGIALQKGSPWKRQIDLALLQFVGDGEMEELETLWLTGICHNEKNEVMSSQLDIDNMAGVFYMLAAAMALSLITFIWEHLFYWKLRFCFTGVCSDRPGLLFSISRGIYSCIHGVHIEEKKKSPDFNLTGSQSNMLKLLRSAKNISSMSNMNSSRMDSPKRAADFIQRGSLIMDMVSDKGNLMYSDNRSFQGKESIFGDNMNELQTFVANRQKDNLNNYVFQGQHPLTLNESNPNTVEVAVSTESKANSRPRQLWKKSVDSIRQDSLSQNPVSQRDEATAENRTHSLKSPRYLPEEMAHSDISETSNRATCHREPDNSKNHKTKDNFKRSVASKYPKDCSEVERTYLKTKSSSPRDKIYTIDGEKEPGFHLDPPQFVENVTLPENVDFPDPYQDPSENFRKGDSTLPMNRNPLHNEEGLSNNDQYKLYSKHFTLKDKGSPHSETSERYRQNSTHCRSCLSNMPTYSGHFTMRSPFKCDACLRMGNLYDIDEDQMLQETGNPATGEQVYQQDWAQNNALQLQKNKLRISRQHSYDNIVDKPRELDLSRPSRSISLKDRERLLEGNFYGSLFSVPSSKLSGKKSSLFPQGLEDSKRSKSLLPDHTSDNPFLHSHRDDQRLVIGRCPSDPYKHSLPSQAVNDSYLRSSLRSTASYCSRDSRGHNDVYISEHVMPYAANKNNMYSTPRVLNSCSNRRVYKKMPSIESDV
Procedure: as §3, §4, §5, §6

[5] = Oral pharmacokinetics in rats (plasma, brain, CSF); format: in vivo, Sprague Dawley rats; conditions: rat, oral gavage, 10 mg/kg; for bioavailability / AUC(0-t) / Cmax / Tmax: Sprague Dawley, plasma
Procedure: In another experiment, Sprague Dawley rats were dosed per os (oral gavage) using a normal saline formulation containing 10 mg/kg of the compounds identified in the table below. Plasma, brain, and CSF samples were analyzed at various time points over a 24 hour period. The table below summarizes the results of the oral pharmacokinetics, where the first three values (Tmax, Cmax and AUClast) are plasma values.

[6] = Microsomal stability (Rat); format: in vitro ADME; conditions: rat microsomes, after 60 minutes
Procedure: as §2

Sprague Dawley rats = experiment: Bennett nerve injury assay (mechanical analgesia, paw withdrawal threshold); format: in vivo; conditions: 150 mg/kg PO
Procedure: The Bennett model of mechanical analgesia is used to assess the analgesic effects of compounds as measured by paw withdrawal threshold. Bennett G J, Xie Y K, “A peripheral mononeuropathy in rat that produces disorders of pain sensation like those seen in man,” Pain 33:87-107, 1988. […] Vehicle animals receive the surgery and then receive vehicle rather than test compound. Animals were tested 1 hr, 24 h and 1 wk post-test compound or vehicle administration.
Male 2-3 month old Sprague Dawley rats were used. Harlan was the supplier for all studies. Rats were housed in Lucite cages with aspen wood chip bedding, maintained on a 12:12 light:dark cycle (lights on at 5 AM), and given ad libitum access to Purina lab chow (USA) and tap water throughout the study.
Rats were anesthetized using inhaled isoflurane (2.5%). Sciatic nerve chronic constriction nerve injury surgery was performed as previously described (Bennett and Xie, 1988). An incision (˜1.5 cm in length) was made with a scalpel blade dorsally through skin on the right hind limb, parallel and posterior to femur. Using a small pointed hemostat, the biceps femoris and gluteus superficialis muscles were separated. Using curved blunt forceps, the common sciatic nerve was isolated and exposed. For the mechanical analgesia studies, the whole sciatic nerve was ligated. Using hemostats/forceps and chromic gut (5-0), the nerve was loosely ligated with a square knot; 3 ligatures, 1 mm apart were placed on the nerve. […] Testing occurred approximately 2 weeks post-surgery.
During testing, rats were acclimated to the surface of a suspended wire mesh grid (1 cm×1 cm, with the wire being 0.3 cm in diameter) for 15-20 min. Starting from the smallest, each Von Frey filament was pressed perpendicularly to the plantar surface of the affected (ipsilateral) hind paw until slightly bent and then held for 6 second. If an obvious hind paw withdrawal or a flinching behavior immediately after the withdrawal of the filament was not observed, the next larger filament was used in the same manner. In case of a response, a lower filament was used. This was repeated until six responses were collected.
For all studies, animals were baselined prior to study start to test for allodynia (defined as a paw withdrawal threshold under 5). A subset of animals was tested with gabapentin (150 mg/kg, PO) to ensure at least 50% analgesia. Once it was confirmed animals were ready for study initiation, animals were balanced across groups. All study investigators were blind to treatment conditions. Animals were dosed with 0.1, 1 or 10 mg/kg of test compound via oral gavage (PO), control sets of animals were dosed with gabapentin (150 mg/kg, PO) or vehicle (0.5% Na-CMC in 0.9% sterile saline, PO). Testing occurred 1 h post-dosing with animals retested 24 hrs and 1 week post-dosing. The percent analgesia calculations for each animal were made using the following equation: % analgesia=[(log(x)−y)/((log (z)−y)]*100, where x=the paw withdrawal threshold for the drug-treated animal in grams, y=the average of the log(x) values for the vehicle treated group, and z=the paw withdrawal threshold for naïve animals in grams (historical value of 15 used). The results for Compound AD, where the percentage of analgesia is measured at 1 hour, 24 hours, and 1 week after compound administration are as follows: for 0.1 mg/kg dose: 38.7% at 1 h, 34.5% at 24 h, and 19.7% at 1 wk; for 1 mg/kg dose: 24.1% at 1 h, 26.5% at 24 h, and 13.2% at 1 wk; and for 10 mg/kg dose: 61.2% at 1 h, 45.1% at 24 h, and 39.5% at 1 wk.

SMILES	Plasma (Human): percent of compound remaining (Plasma stability (Human)) [%]	Microsomal (Human): percent of compound remaining [1] [%]	Plasma (Rat): percent of compound remaining (Plasma stability (Rat)) [%]	AUC(0-t) [2] [ng·h/mL]	Cmax [2] [ng/mL]	clearance [2] [mL/min/kg]	half-life [2] [h]	Vd [2] [L/kg]	NMDAR2B A: % maximal [3H]MK-801 binding relative to 1 mM glycine (NMDAR2B)	EC50 (NMDAR2B) [nM]	NMDAR2A A: % maximal [3H]MK-801 binding relative to 1 mM glycine (NMDAR2A)	bioavailability [5] [%]	AUC(0-t) [5] [ng·h/mL]	Cmax [5] [ng/mL]	Tmax [5] [h]	CSF Cmax [5] [ng/mL]	Brain Cmax [5] [ng/mL]	Microsomal (Rat): percent of compound remaining [6] [%]	EC50 (NMDAR2A) [nM]	further results
O=C(O)C(F)(F)F.O=C1NCCCC12CCNCC2 [AA, 2,9-diazaspiro[5.5]undecan-1-one]	97	96	84	1160	2660	28.4	2	1.76	+ (<100%=+)	< 1	− (−=0)	18	1020	325	2.11	12	0	91		NMDAR2D A: % maximal [3H]MK-801 binding relative to 1 mM glycine (NMDAR2D [3]): ++ (>100%=++); EC50 (NMDAR2D [4]): < 1 nM; NMDAR2A B: log EC50 (NMDAR2A): −
NCC1(CC(=O)O)CCCCC1 [gabapentin, reference compound]																				% analgesia (Sprague Dawley rats; 1 week post-administration, control group of the study): under 5%; % analgesia (Sprague Dawley rats; 1 wk, example (typical) control values): 0%; % analgesia (Sprague Dawley rats; 1 h, example (typical) control values): 77%; % analgesia (Sprague Dawley rats; 1 h post-administration, control group of the study): at least 50%; % analgesia (Sprague Dawley rats; 24 h, example (typical) control values): 17%; % analgesia (Sprague Dawley rats; 24 h post-administration, control group of the study): under 5%
CC(C)(C)OC(=O)N1CCC2(CCCNC2=O)CC1 [AC, tert-butyl 1-oxo-2,9-diazaspiro[5.5]undecane-9-carboxylate]	100	100	100	845	5660	39.5	0.12	0.31	+ (<100%=+)	< 1	+ (<100%=+)	44	1860	3630	0.25	261	298	96	> 1	
O=C1NCCCCC12CCNCC2 [AG, 3,8-diazaspiro[5.6]dodecan-7-one]									+ (<100%=+)	< 1	+ (<100%=+)								< 1	
